From publication PMC6219668 (Oncotarget, 2018)
pEC50, pIC50: −log10 of the molar value.

Test system: panel of nearly 500 cancer cell lines
Assay: Cancer Cell Line Encyclopedia profiling, 3-day CellTiter-Glo
Type: cell-based
Conditions: Homo sapiens

CN(C)C(=O)c1cc2cnc(Nc3ccc(N4CCNCC4)cn3)nc2n1C1CCCC1 [Ribociclib, 7-cyclopentyl-2-(5-piperazin-1-yl-pyridin-2-ylamino)-7H-pyrrolo[2,3-d]pyrimidine-6-carboxylic acid dimethylamide]
pEC50 (HPAF-II): < 5.10 | pIC50 (HPAF-II): < 5.10 | pEC50 (HSC-2): < 5.10 | pIC50 (HSC-2): < 5.10 | pEC50 (HT1197): 5.74 | pIC50 (HT1197): < 5.10 | pEC50 (HT-29): < 5.10 | pIC50 (HT-29): 5.23 | pEC50 (HT-144): < 5.10 | pIC50 (HT-144): < 5.10 | pEC50 (HT-1080): 5.56 | pIC50 (HT-1080): < 5.10 | pEC50 (HepG2): 6.64 | pIC50 (HepG2): < 5.10 | pEC50 (Hs 294T): 5.33 | pIC50 (Hs 294T): < 5.10 | pEC50 (Hs 683): < 5.10 | pIC50 (Hs 683): < 5.10 | pEC50 (Hs 695T): < 5.10 | pIC50 (Hs 695T): < 5.10 | pEC50 (Hs746T): 6.36 | pIC50 (Hs746T): < 5.10 | pEC50 (Hs-578T): < 5.10 | pIC50 (Hs-578T): < 5.10 | pEC50 (HuCCT-1): < 5.10 | pIC50 (HuCCT-1): < 5.10 | pEC50 (HuH-1): < 5.10 | pIC50 (HuH-1): < 5.10 | pEC50 (HuP-T3): < 5.10 | pIC50 (HuP-T3): < 5.10 | pEC50 (HuP-T4): 5.65 | pIC50 (HuP-T4): 5.37 | pEC50 (HuT78): < 5.10 | pIC50 (HuT78): < 5.10 | pEC50 (IGR-37): 6.68 | pIC50 (IGR-37): < 5.10 | pEC50 (IGROV-1): < 5.10 | pIC50 (IGROV-1): < 5.10 | pEC50 (IM95): < 5.10 | pIC50 (IM95): < 5.10 | pEC50 (IMR-32): 6.54 | pIC50 (IMR-32): 5.81 | pEC50 (JVM-3): < 5.10 | pIC50 (JVM-3): < 5.10 | pEC50 (Jurkat): 5.43 | pIC50 (Jurkat): 5.43 | pEC50 (KALS-1): < 5.10 | pIC50 (KALS-1): < 5.10 | pEC50 (KARPAS-299): 6.06 | pIC50 (KARPAS-299): < 5.10 | pEC50 (KARPAS-422): < 5.10 | pIC50 (KARPAS-422): < 5.10 | pEC50 (KCL-22): < 5.10 | pIC50 (KCL-22): 5.21 | pEC50 (KMS-11): 6.63 | pIC50 (KMS-11): < 5.10 | pEC50 (KMS-12-BM): < 5.10 | pIC50 (KMS-12-BM): < 5.10 | pEC50 (KNS-42): 6.87 | pIC50 (KNS-42): < 5.10 | pEC50 (KNS-62): 6.03 | pIC50 (KNS-62): < 5.10 | pIC50 (KU812): < 5.10 | pEC50 (KYSE-30): < 5.10 | pIC50 (KYSE-30): < 5.10 | pEC50 (KYSE-70): 5.92 | pIC50 (KYSE-70): 5.25 | pEC50 (KYSE-140): 6.36 | pIC50 (KYSE-140): < 5.10 | pEC50 (KYSE-150): 5.53 | pIC50 (KYSE-150): < 5.10 | pEC50 (KYSE-180): 6.29 | pIC50 (KYSE-180): < 5.10 | pEC50 (KYSE-410): < 5.10 | pIC50 (KYSE-410): < 5.10 | pEC50 (KYSE-450): < 5.10 | pIC50 (KYSE-450): < 5.10 | pEC50 (KYSE-510): < 5.10 | pIC50 (KYSE-510): < 5.10 | pEC50 (KYSE-520): 5.22 | pIC50 (KYSE-520): < 5.10 | pEC50 (L-363): 5.98 | pIC50 (L-363): < 5.10 | pEC50 (L-428): 5.69 | pIC50 (L-428): < 5.10 | pEC50 (LCLC-103H): < 5.10 | pIC50 (LCLC-103H): < 5.10 | pEC50 (LN-18): < 5.10 | pIC50 (LN-18): < 5.10 | pEC50 (LN-229): < 5.10 | pIC50 (LN-229): < 5.10 | pEC50 (LOX IMVI): 5.54 | pIC50 (LOX IMVI): < 5.10 | pEC50 (LS-123): < 5.10 | pIC50 (LS-123): < 5.10 | pEC50 (LS-411N): 5.47 | pIC50 (LS-411N): 5.77 | pEC50 (LS-513): < 5.10 | pIC50 (LS-513): < 5.10 | pEC50 (Lu-99): 6.25 | pIC50 (Lu-99): 5.43 | pEC50 (M059J): < 5.10 | pIC50 (M059J): < 5.10 | pEC50 (MC116): < 5.10 | pIC50 (MC116): < 5.10 | pEC50 (MCF7): 6.47 | pIC50 (MCF7): 5.86 | pEC50 (MDA-MB-157): < 5.10 | pIC50 (MDA-MB-157): < 5.10 | pEC50 (MDA-MB-175-VII): < 5.10 | pIC50 (MDA-MB-175-VII): < 5.10 | pEC50 (MDA-MB-415): < 5.10 | pIC50 (MDA-MB-415): < 5.10 | pEC50 (MDA-MB-435S): 6.68 | pIC50 (MDA-MB-435S): 6.11 | pEC50 (MDA-MB-436): < 5.10 | pIC50 (MDA-MB-436): < 5.10 | pEC50 (MDA-MB-453): 6.78 | pIC50 (MDA-MB-453): < 5.10 | pEC50 (MDA-MB-468): 6.46 | pIC50 (MDA-MB-468): < 5.10 | pEC50 (MEC1): < 5.10 | pIC50 (MEC1): < 5.10 | pEC50 (MEG-01): 6.41 | pIC50 (MEG-01): < 5.10 | pEC50 (MES-SA): 6.08 | pIC50 (MES-SA): < 5.10 | pEC50 (MFE-280): < 5.10 | pIC50 (MFE-280): < 5.10 | pEC50 (MFE-296): 6.79 | pIC50 (MFE-296): 6.07 | pEC50 (MG-63): 6.62 | pIC50 (MG-63): < 5.10 | pEC50 (MIA PaCa-2): 5.63 | pIC50 (MIA PaCa-2): 5.25 | pEC50 (MINO): 6.57 | pIC50 (MINO): 6.34 | pEC50 (MKN-7): < 5.10 | pIC50 (MKN-7): < 5.10 | pEC50 (MKN-45): 6.64 | pIC50 (MKN-45): < 5.10 | pEC50 (MKN-74): < 5.10 | pIC50 (MKN-74): < 5.10 | pEC50 (MOLP-8): < 5.10 | pIC50 (MOLP-8): < 5.10 | pEC50 (MSTO-211H): < 5.10 | pIC50 (MSTO-211H): < 5.10 | pEC50 (Malme-3M): 8.59 | pIC50 (Malme-3M): < 5.10 | pEC50 (MeWo): 5.59 | pIC50 (MeWo): 5.59 | pEC50 (NCI-H23): < 5.10 | pIC50 (NCI-H23): < 5.10 | pEC50 (NCI-H28): < 5.10 | pIC50 (NCI-H28): 5.21 | pEC50 (NCI-H211): 6.43 | pIC50 (NCI-H211): < 5.10 | pEC50 (NCI-H226): < 5.10 | pIC50 (NCI-H226): < 5.10 | pEC50 (NCI-H358): 5.16 | pIC50 (NCI-H358): < 5.10 | pEC50 (NCI-H441): 6.47 | pIC50 (NCI-H441): < 5.10 | pEC50 (NCI-H460): < 5.10 | pIC50 (NCI-H460): < 5.10 | pEC50 (NCI-H520): < 5.10 | pIC50 (NCI-H520): < 5.10 | pEC50 (NCI-H522): < 5.10 | pIC50 (NCI-H522): < 5.10 | pEC50 (NCI-H647): < 5.10 | pIC50 (NCI-H647): < 5.10 | pEC50 (NCI-H650): 5.61 | pIC50 (NCI-H650): < 5.10 | pEC50 (NCI-H661): < 5.10 | pIC50 (NCI-H661): < 5.10 | pEC50 (NCI-H727): 5.98 | pIC50 (NCI-H727): < 5.10 | pEC50 (NCI-H747): < 5.10 | pIC50 (NCI-H747): < 5.10 | pEC50 (NCI-H810): < 5.10 | pIC50 (NCI-H810): < 5.10 | pEC50 (NCI-H1048): < 5.10 | pIC50 (NCI-H1048): < 5.10 | pEC50 (NCI-H1092): < 5.10 | pIC50 (NCI-H1092): < 5.10 | pEC50 (NCI-H1155): 5.58 | pIC50 (NCI-H1155): < 5.10 | pEC50 (NCI-H1299): 5.82 | pIC50 (NCI-H1299): < 5.10 | pEC50 (NCI-H1355): 6.33 | pIC50 (NCI-H1355): < 5.10 | pEC50 (NCI-H1373): < 5.10 | pIC50 (NCI-H1373): < 5.10 | pEC50 (NCI-H1563): < 5.10 | pIC50 (NCI-H1563): < 5.10 | pEC50 (NCI-H1573): < 5.10 | pIC50 (NCI-H1573): < 5.10 | pEC50 (NCI-H1581): < 5.10 | pIC50 (NCI-H1581): < 5.10 | pEC50 (NCI-H1648): < 5.10 | pIC50 (NCI-H1648): < 5.10 | pEC50 (NCI-H1650): < 5.10 | pIC50 (NCI-H1650): < 5.10 | pEC50 (NCI-H1651): < 5.10 | pIC50 (NCI-H1651): < 5.10 | pEC50 (NCI-H1666): < 5.10
